The record followed here is patent US9073864B2, “Aromatic ring compound” (TAKEDA PHARMACEUTICAL COMPANY LIMITED, priority 2012, dated 2015).

The target in assay [1] is T1, human type glucagon receptor (Homo sapiens, UniProt P47871).
T1 construct: an about 1.4 kb DNA fragment containing glucagon receptor gene was recovered from the gel; expressed in transfected cells; host or cells: FreeStyle CHO cells (transient expression); membrane fraction prepared by homogenisation and ultracentrifugation
Description: Measurement of glucagon binding inhibitory activity ([125I]-glucagon, receptor membrane protein). The note with it: test compound 10 μM; 0.4% DMSO alone = 0%, unlabeled glucagon 1 μM = 100%; read-out: inhibitory rate (%) at 10 μM. The procedure: The glucagon binding inhibitory action of the compound of the present invention was evaluated by the following method.
(1) Cloning of Human Glucagon Receptor Gene
Human glucagon receptor gene was cloned by PCR reaction using human pancreas Marathon-ready cDNA (Clontech Laboratories, Inc.) as a template and the following primer set.
The PCR reaction was performed using Advantage 2 polymerase (Clontech Laboratories, Inc.) and according to the attached protocol. The obtained PCR product was subjected to agarose gel (1%) electrophoresis, an about 1.4 kb DNA fragment containing glucagon receptor gene was recovered from the gel, and digested with restriction enzymes EcoRI and NotI. The restriction enzyme-treated DNA was subjected to agarose gel (1%) electrophoresis, an about 1.4 kb DNA fragment was recovered and ligated with plasmid pMSRaneo digested with restriction enzymes EcoRI and NotI to give human type glucagon receptor expression plasmid DNA “pMSRaneo/hGCGR”. The base sequence of the inserted fragment was confirmed to be identical with the object sequence.
(2) Preparation of Glucagon Receptor Membrane Protein
Human type glucagon receptor was expressed using FreeStyle CHO Expression System (Invitrogen™). According to the manual attached to the FreeStyle CHO Expression System, and using the human type glucagon receptor expression plasmid DNA “pMSRaneo/hGCGR” produced in the above-mentioned (1), transient expression was performed by FreeStyle CHO cells. The above-mentioned DNA was transfected, and shaking culture was performed at 37° C., 8% CO2, 125 rpm for 2 days. The culture medium was centrifuged at 2,000 rpm for 10 min and the cells were recovered. The recovered cells were washed with PBS, suspended in homogenate buffer [10 mM NaHCO3 (pH 7.4), 1 mM EDTA, complete EDTA-free (Roche, Ltd., 1 tablet/50 ml)], and the cells were disrupted by a Polytron cell disruption apparatus (Kinematica AG). The disruption solution was centrifuged at 2,000 rpm for 10 min, and the supernatant was recovered. The supernatant was centrifuged at 35,000 rpm for 60 min, and the precipitate was suspended in a buffer [20 mM Tris-HCl (pH 7.4), 5 mM EDTA, complete EDTA-free (Roche, Ltd., 1 tablet/50 ml)] to give a glucagon receptor membrane protein.
(3) Measurement of Glucagon Binding Inhibitory Activity
The reaction was started by adding 50 μl of a glucagon receptor membrane protein solution diluted with a reaction buffer [50 mM HEPES (pH 7.4), 5 mM EGTA, 5 mM magnesium chloride, 0.1% BSA, 0.005% Tween20] to 100 μg/ml, 25 μl of a test compound solution containing 0.4% DMSO, which solution was prepared with the reaction buffer to a compound concentration of 40 μM, and 25 μl of radiolabeled glucagon ([^125I]-Receptor Grade Glucagon; Perkin Elmer Inc.) diluted with the reaction buffer to 200 pM to each well of a 96 well plate (Corning Incorporated). The plate was stood at room temperature for 90 min, then the reaction solution was transferred from the reaction plate onto a 96 well unifilter GF/C plate (Perkin Elmer Inc.) by a cell harvester (Perkin Elmer Inc.), and suctioned to collect a membrane fraction on the filter. The filter was immersed in a 0.3% polyethyleneimine solution in advance to prevent non-specific adsorption of the labeled ligand. The filter was washed 4 times with the reaction buffer, and dried at 42° C. for 2 hr. To each well was added 25 μl of scintillator (MicroScint0; Perkin Elmer Inc.), and the amount of fluorescence was measured by a microplate scintillation counter (TopCount NXT™; Perkin Elmer Inc.).
The inhibitory rate (%) of the well added with the test compound (10 μM; containing 0.4% DMSO solution) was calculated wherein the reaction rate of the well added with 0.4% DMSO alone was 0% inhibitory rate and that of the well added with unlabeled glucagon (final concentration 1 μM) was 100% inhibitory rate.

The next assay relates to Wistar fatty rat. Description: Hypoglycemic action in Wistar fatty rat (single administration). The class given is in vivo. The note with it: 10 mg/kg oral, 4 hr after administration, male Wistar fatty rats, change relative to non-administration group. The procedure: Hypoglycemic Action in Wistar Fatty Rat (Single Administration)
Wistar fatty rats (male, 25- to 26-week-old) were orally administered with a 0.5% methylcellulose suspension containing a test compound (10 mg/kg body weight) (test compound administration group, 4-6 per group) or 0.5% methylcellulose solution (test compound non-administration group, 4-6 per group), blood samples were collected from the rat tail vein 4 hr after the administration, and the hypoglycemic action was evaluated using the blood. The blood glucose was measured using Model 7180 HITACHI automatic analyzer (Hitachi, Ltd.).
In each animal of the test compound administration group and the test compound non-administration group, changes in the blood glucose level from that before administration was calculated, the difference between the “average change of test compound non-administration group” and the “change in each animal of test compound administration group” was calculated as the “change in blood glucose due to test compound”, and the average of each group was taken as the “blood glucose change value (mg/dL)”.

In assay [2] the test system is streptozotocin (STZ)-induced type 1 diabetes model rat. Description: Suppressive action on hyperglycemia after eating in STZ-induced type 1 diabetes model rat bred with time-limited feeding. The settings on record: 10 mg/kg p.o. q.d., detemir 10 U/kg s.c., n=8; for average plasma glucose concentration, 1 hr: 1 hr after administration and start of feeding; for average plasma glucose concentration, 2 hr: 2 hr after administration (immediately before end of feeding); for average plasma glucose concentration, value before administration: next day of 3 days repeated compound administration, immediately before feeding and dosing. The class given is in vivo. As for the experimental part: Suppressive Action on Hyperglycemia after Eating in Streptozotocin (STZ)-Induced Type 1 Diabetes Model Rat Bred with Time-Limited Feeding
Type 1 diabetes model STZ rat was generated by intravenously administering streptozotocin (STZ: Wako Pure Chemical Industries, Ltd., 65 mg/kg) after overnight fasting. From 1 week after the STZ treatment, time-limited feeding (feeding twice per day for 2 hours each time at 9:00-11:00 am and 16:00-18:00 pm) was started. On day 6 of breeding with time-limited feeding, blood samples were collected immediately before feeding in the morning and after 2 hours of feeding (immediately before end of feeding), and the rats were divided into two groups of detemir (long-acting insulin preparation) treatment group and detemir non-treatment group, with an increase in the plasma glucose concentration associated with the feed intake as an index. In the detemir treatment group, repeated subcutaneous administration of detemir (10 U/kg body weight, Novo Nordisk Pharma Ltd., once per day) was started after the end of feeding in the afternoon, and continued for 7 days until one day before evaluation of the influence of compound administration. Similarly, the detemir non-treatment group was subcutaneously administered repeatedly with saline for 7 days.
The day after repeated administration of detemir for 3 days, blood samples were collected in the same manner as above, and the animals in the detemir treatment group were divided into 3 groups based on an increase in the plasma glucose concentration associated with the feed intake. Each group was orally administered repeatedly with a 0.5% methylcellulose (MC) suspension containing the compound of Example 3 or 21 (10 mg/kg, q.d.) (8 per each group), or 0.5% methylcellulose solution (compound non-administration group, 8) for 4 days before feeding in the morning, starting from the next day of repeated administration of detemir for 4 days.
The next day of repeated administration of detemir for 7 days (the next day of repeated administration of compound for 3 days), blood samples were collected immediately before the start of feeding (and each compound administration) in the morning to obtain values before administration. Also, blood samples were collected after 1 and 2 hours of the administration (immediately before end of feeding), and an influence of compound administration on the profile of plasma glucose concentration after feed intake was evaluated.
Throughout the test, blood samples were collected from the tail vein, and the plasma glucose concentration was measured using Model 7180 HITACHI automatic analyzer.

T1 sequence (P47871 26-477): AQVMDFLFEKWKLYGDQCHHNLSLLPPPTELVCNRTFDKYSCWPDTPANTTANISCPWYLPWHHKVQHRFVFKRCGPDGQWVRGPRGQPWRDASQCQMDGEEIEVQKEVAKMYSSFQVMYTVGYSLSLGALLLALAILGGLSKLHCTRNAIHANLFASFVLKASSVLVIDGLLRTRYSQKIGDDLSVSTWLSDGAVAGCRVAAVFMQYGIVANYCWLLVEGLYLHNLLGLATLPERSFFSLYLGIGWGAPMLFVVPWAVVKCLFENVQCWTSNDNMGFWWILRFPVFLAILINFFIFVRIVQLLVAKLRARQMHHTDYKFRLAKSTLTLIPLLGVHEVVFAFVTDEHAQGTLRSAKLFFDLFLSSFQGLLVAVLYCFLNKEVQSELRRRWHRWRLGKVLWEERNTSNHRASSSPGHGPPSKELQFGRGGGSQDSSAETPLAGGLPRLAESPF

With `Cc1cc(-c2ccc(C(F)(F)F)cn2)ccc1C(CCC(F)(F)F)Nc1ccc(C(=O)N2CCC[C@@H](C(=O)O)C2)cc1` (stereo partly drawn) [Example 1, (3R)-1-(4-((4,4,4-trifluoro-1-(2-methyl-4-(5-(trifluoromethyl)pyridin-2-yl)phenyl)butyl)amino)benzoyl)piperidine-3-carboxylic acid], the inhibition at 10 µM in assay [1] amounted to 84%. The “blood glucose change value” in the assay with Wistar fatty rat was -162.9 mg/dL.
For the compound `Cc1cc(-c2ncc(Cl)cn2)ccc1C(CCC(F)(F)F)Nc1ccc(C(=O)N2CCC[C@@H](C(=O)O)C2)cc1` (stereo partly drawn) [Example 2, (3R)-1-(4-((1-(4-(5-chloropyrimidin-2-yl)-2-methylphenyl)-4,4,4-trifluorobutyl)amino)benzoyl)piperidine-3-carboxylic acid], in assay [1], the inhibition at 10 µM amounted to 92%. The “blood glucose change value” with Wistar fatty rat was -149.8 mg/dL.
Regarding `Cc1cc(-c2ncc(C(F)(F)F)cn2)ccc1C(CCC(F)(F)F)Nc1ccc(C(=O)N2CCC[C@@H](C(=O)O)C2)cc1` (stereo partly drawn) [Example 3, (3R)-1-(4-((4,4,4-trifluoro-1-(2-methyl-4-(5-(trifluoromethyl)pyrimidin-2-yl)phenyl)butyl)amino)benzoyl)piperidine-3-carboxylic acid], the inhibition at 10 µM in assay [1] came out at 91%. Also, the “blood glucose change value” in the assay with Wistar fatty rat was -142.5 mg/dL. Moreover, in assay [2], the “average plasma glucose concentration, 1 hr” value was found to be 463.6 mg/dL; the “average plasma glucose concentration, 2 hr” value was found to be 555.2 mg/dL; the “average plasma glucose concentration, value before administration” value amounted to 397.0 mg/dL.
With `CCc1cnc(-c2ccc(C(CCC(F)(F)F)Nc3ccc(C(=O)N4CCC[C@@H](C(=O)O)C4)cc3)c(C)c2)nc1` (stereo partly drawn) [Example 4, (3R)-1-(4-((1-(4-(5-ethylpyrimidin-2-yl)-2-methylphenyl)-4,4,4-trifluorobutyl)amino)benzoyl)piperidine-3-carboxylic acid], in assay [1], the inhibition at 10 µM amounted to 95%. The “blood glucose change value” with Wistar fatty rat is -130.4 mg/dL.
Take `Cc1cc(-n2cc3c(n2)CCCC3)ccc1C(CCC(F)(F)F)Nc1ccc(C(=O)N2CCC[C@@H](C(=O)O)C2)cc1` (stereo partly drawn) [Example 21, (3R)-1-(4-((4,4,4-trifluoro-1-(2-methyl-4-(4,5,6,7-tetrahydro-2H-indazol-2-yl)phenyl)butyl)amino)benzoyl)piperidine-3-carboxylic acid]: the inhibition at 10 µM in assay [1] amounted to 90%. In addition, the “blood glucose change value” in the assay on Wistar fatty rat was -136.0 mg/dL. Besides, in assay [2], the “average plasma glucose concentration, 1 hr” value was 471.1 mg/dL; the “average plasma glucose concentration, 2 hr” value is 552.0 mg/dL; the “average plasma glucose concentration, value before administration” value worked out at 435.6 mg/dL.
Take `O=C(O)[C@@H]1CCCN(C(=O)c2ccc(NC(CCC(F)(F)F)c3ccc(-c4ccccc4)cn3)cc2)C1` (stereo partly drawn) [Example 25, (3R)-1-(4-((4,4,4-trifluoro-1-(5-phenylpyridin-2-yl)butyl)amino)benzoyl)piperidine-3-carboxylic acid]: the inhibition at 10 µM in assay [1] worked out at 71%.
Regarding `Cc1cc(-c2ccc(C(F)(F)F)cn2)ccc1C(Nc1ccc(C(=O)N2CCC[C@@H](C(=O)O)C2)cc1)C(C)C` (stereo partly drawn) [Example 26, (3R)-1-(4-((2-methyl-1-(2-methyl-4-(5-(trifluoromethyl)pyridin-2-yl)phenyl)propyl)amino)benzoyl)piperidine-3-carboxylic acid], the inhibition at 10 µM in assay [1] amounted to 88%.
Turning to `O=C(O)[C@@H]1CCCN(C(=O)c2ccc(NC(CCC(F)(F)F)c3ccc(-c4ccc(Cl)cc4)cc3)cc2)C1` (stereo partly drawn) [Example 27, (3R)-1-(4-((1-(4′-chlorobiphenyl-4-yl)-4,4,4-trifluorobutyl)amino)benzoyl)piperidine-3-carboxylic acid], in assay [1], the inhibition at 10 µM was 86%.
Take `O=C(O)[C@@H]1CCCN(C(=O)c2ccc(NC(CCC(F)(F)F)c3ccc(-c4ccc(Cl)cc4)cc3)nc2)C1` (stereo partly drawn) [Example 28, (3R)-1-((6-((1-(4′-chlorobiphenyl-4-yl)-4,4,4-trifluorobutyl)amino)pyridin-3-yl)carbonyl)piperidine-3-carboxylic acid]: in assay [1], the inhibition at 10 µM came to 98%.
Consider `CCc1cnc(-c2ccc(C(Nc3ccc(C(=O)N4CCC[C@@H](C(=O)O)C4)cc3)C(C)C)c(C)c2)nc1` (stereo partly drawn) [Example 112, (3R)-1-(4-((1-(4-(5-ethylpyrimidin-2-yl)-2-methylphenyl)-2-methylpropyl)amino)benzoyl)piperidine-3-carboxylic acid], for which, in assay [1], the inhibition at 10 µM stood at 90%.
`Cc1cc(-n2cc3c(n2)CCCC3)ccc1C(Nc1ccc(C(=O)N2CCC[C@@H](C(=O)O)C2)cc1)C(C)C` (stereo partly drawn) [Example 117, (3R)-1-(4-((2-methyl-1-(2-methyl-4-(4,5,6,7-tetrahydro-2H-indazol-2-yl)phenyl)propyl)amino)benzoyl)piperidine-3-carboxylic acid]: the inhibition at 10 µM in assay [1] is 90%.
